#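 Protocol summary: plate cells (96-well), add compound at 5 concentrations, incubate 48 h, interpolate endpoints linearly. The concentration for 50% growth inhibition is given as GI50. TGI: total growth inhibition.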
# What was measured:
# Experiment in all cases: NCI anticancer screen, dose series, 48 h
# HT29 colon = system: HT29 colon
# HCT-15 colon = system: HCT-15 colon
# PC-3 prostate = system: PC-3 prostate
# MOLT-4 leukemia = system: MOLT-4 leukemia
# SK-MEL-5 melanoma = system: SK-MEL-5 melanoma
# HCC-2998 colon = system: HCC-2998 colon
# HS 578T breast = system: HS 578T breast
# CCRF-CEM leukemia = system: CCRF-CEM leukemia
# OVCAR-8 ovarian = system: OVCAR-8 ovarian
# UO-31 renal = system: UO-31 renal
# MCF7 breast = system: MCF7 breast
# U251 CNS = system: U251 CNS
# UACC-62 melanoma = system: UACC-62 melanoma
# A498 renal = system: A498 renal
# HL-60(TB) leukemia = system: HL-60(TB) leukemia
# SNB-75 CNS = system: SNB-75 CNS
# BT-549 breast = system: BT-549 breast
# CAKI-1 renal = system: CAKI-1 renal
# M14 melanoma = system: M14 melanoma
# SNB-19 CNS = system: SNB-19 CNS
# NCI-H522 lung = system: NCI-H522 lung
# SK-MEL-2 melanoma = system: SK-MEL-2 melanoma
# SW-620 colon = system: SW-620 colon
# SK-OV-3 ovarian = system: SK-OV-3 ovarian
# NCI-H460 lung = system: NCI-H460 lung
# HOP-62 NSCLC = system: HOP-62 NSCLC
# KM12 colon = system: KM12 colon
# MALME-3M melanoma = system: MALME-3M melanoma
# NCI-H23 lung = system: NCI-H23 lung
# HCT-116 colon = system: HCT-116 colon
# SK-MEL-28 melanoma = system: SK-MEL-28 melanoma
# ACHN renal = system: ACHN renal
# IGROV1 ovarian = system: IGROV1 ovarian
# SR leukemia = system: SR leukemia
# NCI/ADR-RES ovarian = system: NCI/ADR-RES ovarian
# SF-295 CNS = system: SF-295 CNS
# NCI-H226 lung = system: NCI-H226 lung
# OVCAR-4 ovarian = system: OVCAR-4 ovarian
# RXF 393 renal = system: RXF 393 renal
# OVCAR-5 ovarian = system: OVCAR-5 ovarian
# RPMI-8226 leukemia = system: RPMI-8226 leukemia
# TK-10 renal = system: TK-10 renal
# SF-539 CNS = system: SF-539 CNS
# K-562 leukemia = system: K-562 leukemia
# T-47D breast = system: T-47D breast
# UACC-257 melanoma = system: UACC-257 melanoma
# MDA-MB-435 = system: MDA-MB-435
# 786-0 renal = system: 786-0 renal
# MDA-MB-231 breast = system: MDA-MB-231 breast
# SF-268 CNS = system: SF-268 CNS
# HOP-92 NSCLC = system: HOP-92 NSCLC
# A549 NSCLC = system: A549 NSCLC
# EKVX NSCLC = system: EKVX NSCLC
# DU-145 prostate = system: DU-145 prostate
# SN12C renal = system: SN12C renal
# COLO 205 colon = system: COLO 205 colon
# LOX IMVI melanoma = system: LOX IMVI melanoma
smiles,measurement,setting,value
CCN1CCN(c2ccc(NC(=O)Nc3ccc4c(ccn4-c4ccnc(C(=O)NC)c4)c3)cc2C(F)(F)F)CC1,GI50,HT29 colon,1.07 µM
same,TGI,HT29 colon,3.22 µM
same,GI50,HCT-15 colon,1.04 µM
same,TGI,HCT-15 colon,3.35 µM
same,GI50,PC-3 prostate,2.34 µM
same,TGI,PC-3 prostate,7.38 µM
same,GI50,MOLT-4 leukemia,1.79 µM
same,TGI,MOLT-4 leukemia,9.46 µM
same,GI50,SK-MEL-5 melanoma,2.52 µM
same,TGI,SK-MEL-5 melanoma,4.56 µM
same,GI50,HCC-2998 colon,2.47 µM
same,TGI,HCC-2998 colon,4.54 µM
same,GI50,HS 578T breast,2.5 µM
same,TGI,HS 578T breast,13.7 µM
same,GI50,CCRF-CEM leukemia,3.77 µM
same,TGI,CCRF-CEM leukemia,> 14.3 µM
same,GI50,OVCAR-8 ovarian,2.62 µM
same,TGI,OVCAR-8 ovarian,5.49 µM
same,GI50,UO-31 renal,2.23 µM
same,TGI,UO-31 renal,4.21 µM
same,GI50,MCF7 breast,2.15 µM
same,TGI,MCF7 breast,5.05 µM
same,GI50,U251 CNS,1.64 µM
same,TGI,U251 CNS,3.53 µM
same,GI50,UACC-62 melanoma,2.34 µM
same,TGI,UACC-62 melanoma,4.55 µM
same,GI50,A498 renal,13.5 µM
same,TGI,A498 renal,> 14.3 µM
same,GI50,HL-60(TB) leukemia,2.66 µM
same,TGI,HL-60(TB) leukemia,6.11 µM
same,GI50,SNB-75 CNS,5.22 µM
same,TGI,SNB-75 CNS,> 14.3 µM
same,GI50,BT-549 breast,> 14.3 µM
same,TGI,BT-549 breast,> 14.3 µM
same,GI50,CAKI-1 renal,2.68 µM
same,TGI,CAKI-1 renal,5.07 µM
same,GI50,M14 melanoma,2.35 µM
same,TGI,M14 melanoma,4.36 µM
same,GI50,SNB-19 CNS,2.36 µM
same,TGI,SNB-19 CNS,4.81 µM
same,GI50,NCI-H522 lung,> 14.3 µM
same,TGI,NCI-H522 lung,> 14.3 µM
same,GI50,SK-MEL-2 melanoma,12.6 µM
same,TGI,SK-MEL-2 melanoma,> 14.3 µM
same,GI50,SW-620 colon,2.5 µM
same,TGI,SW-620 colon,4.79 µM
same,GI50,SK-OV-3 ovarian,> 14.3 µM
same,TGI,SK-OV-3 ovarian,> 14.3 µM
same,GI50,NCI-H460 lung,2.59 µM
same,TGI,NCI-H460 lung,5.03 µM
same,GI50,HOP-62 NSCLC,2.13 µM
same,TGI,HOP-62 NSCLC,4.3 µM
same,GI50,KM12 colon,0.741 µM
same,TGI,KM12 colon,2.85 µM
same,GI50,MALME-3M melanoma,2.07 µM
same,TGI,MALME-3M melanoma,4.22 µM
same,GI50,NCI-H23 lung,2.08 µM
same,TGI,NCI-H23 lung,4.23 µM
same,GI50,HCT-116 colon,2 µM
same,TGI,HCT-116 colon,3.88 µM
same,GI50,SK-MEL-28 melanoma,2.28 µM
same,TGI,SK-MEL-28 melanoma,4.37 µM
same,GI50,ACHN renal,2.56 µM
same,TGI,ACHN renal,4.55 µM
same,GI50,IGROV1 ovarian,2.67 µM
same,TGI,IGROV1 ovarian,5.61 µM
same,GI50,SR leukemia,0.644 µM
same,TGI,SR leukemia,3.22 µM
same,GI50,NCI/ADR-RES ovarian,3.08 µM
same,TGI,NCI/ADR-RES ovarian,7.44 µM
same,GI50,SF-295 CNS,0.925 µM
same,TGI,SF-295 CNS,2.85 µM
same,GI50,NCI-H226 lung,> 14.3 µM
same,TGI,NCI-H226 lung,> 14.3 µM
same,GI50,OVCAR-4 ovarian,2.65 µM
same,TGI,OVCAR-4 ovarian,5.86 µM
same,GI50,RXF 393 renal,1.42 µM
same,TGI,RXF 393 renal,3.58 µM
same,GI50,OVCAR-5 ovarian,11.4 µM
same,TGI,OVCAR-5 ovarian,> 14.3 µM
same,GI50,RPMI-8226 leukemia,1.57 µM
same,TGI,RPMI-8226 leukemia,> 14.3 µM
same,GI50,TK-10 renal,2.68 µM
same,TGI,TK-10 renal,4.82 µM
same,GI50,SF-539 CNS,1.63 µM
same,TGI,SF-539 CNS,3.48 µM
same,GI50,K-562 leukemia,0.793 µM
same,TGI,K-562 leukemia,4.14 µM
same,GI50,T-47D breast,> 14.3 µM
same,TGI,T-47D breast,> 14.3 µM
same,GI50,UACC-257 melanoma,2.45 µM
same,TGI,UACC-257 melanoma,4.68 µM
same,GI50,MDA-MB-435,2.46 µM
same,TGI,MDA-MB-435,4.56 µM
same,GI50,786-0 renal,1.73 µM
same,TGI,786-0 renal,3.63 µM
same,GI50,MDA-MB-231 breast,2.53 µM
same,TGI,MDA-MB-231 breast,5.01 µM
same,GI50,SF-268 CNS,2.53 µM
same,TGI,SF-268 CNS,5.66 µM
same,GI50,HOP-92 NSCLC,1.55 µM
same,TGI,HOP-92 NSCLC,3.44 µM
same,GI50,A549 NSCLC,2.28 µM
same,TGI,A549 NSCLC,4.5 µM
same,GI50,EKVX NSCLC,2.27 µM
same,TGI,EKVX NSCLC,4.47 µM
same,GI50,DU-145 prostate,2.59 µM
same,TGI,DU-145 prostate,4.88 µM
same,GI50,SN12C renal,> 14.3 µM
same,TGI,SN12C renal,> 14.3 µM
same,GI50,COLO 205 colon,> 14.3 µM
same,TGI,COLO 205 colon,> 14.3 µM
same,GI50,LOX IMVI melanoma,2.21 µM
same,TGI,LOX IMVI melanoma,4.22 µM

# From PubChem BioAssay (NCI)
